Laboratory results from patent publication US6358885B1, “Substituted phenylheterocyclic herbicides” (Mississippi State University, priority 1992, dated 2002).

Key:
chickweed = assay: Test C preemergence/postemergence greenhouse plant response rating 0 to 100; type: in vivo, Stellaria media; conditions: POSTEMERGENCE
Procedure, shortened: (§1)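 Compounds in non-phytotoxic solvent applied preemergence to sandy loam one day after planting, postemergence at the 1–4 leaf stage, or to ~2.5 cm floodwater over silt loam.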

cotton = assay: as above; type: in vivo, Gossypium hirsutum; conditions: for Plant response rating, Cotton: 62 g/ha, 0 to 100 scale
Procedure, shortened: as §1

barnyardgrass [1] = assay: Test C flood test plant response rating 0 to 100; type: in vivo, Echinochloa crus-galli
Procedure, shortened: as §1

wild buckwheat = assay: Test B preemergence/postemergence greenhouse plant response rating 0 to 10; type: in vivo, Polygonum convolvulus; conditions: 0 to 10 scale
Procedure, shortened: (§2)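 Postemergence treatment of plants two to eighteen cm tall ran alongside preemergence treatment of planted seed, each using compound in a non-phytotoxic solvent.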

wild oat [2] = assay: Test C preemergence/postemergence greenhouse plant response rating 0 to 100; type: in vivo, Avena fatua
Procedure, shortened: as §1

purple nutsedge = assay: Test B preemergence/postemergence greenhouse plant response rating 0 to 10; type: in vivo, Cyperus rotundus; conditions: 0 to 10 scale
Procedure, shortened: as §2

rape = assay: Test C preemergence/postemergence greenhouse plant response rating 0 to 100; type: in vivo, Brassica napus; conditions: for Plant response rating, Rape: 62 g/ha, 0 to 100 scale
Procedure, shortened: as §1

umbrella sedge = assay: Test C flood test plant response rating 0 to 100; type: in vivo, Cyperus difformis
Procedure, shortened: as §1

giant foxtail [3] = assay: Test B preemergence/postemergence greenhouse plant response rating 0 to 10; type: in vivo, Setaria faberii; conditions: 0 to 10 scale
Procedure, shortened: as §2

soybean = assay: Test C preemergence/postemergence greenhouse plant response rating 0 to 100; type: in vivo, Glycine max
Procedure, shortened: as §1

giant foxtail [4] = assay: as above; type: in vivo, Setaria faberii; conditions: for Plant response rating, Giant foxtail: 62 g/ha, 0 to 100 scale
Procedure, shortened: as §1

cocklebur = assay: Test B preemergence/postemergence greenhouse plant response rating 0 to 10; type: in vivo, Xanthium pensylvanicum; conditions: 0 to 10 scale
Procedure, shortened: as §2

barnyardgrass [5] = assay: as above; type: in vivo, Echinochloa crus-galli; conditions: 0 to 10 scale
Procedure, shortened: as §2

rice = assay: Test C flood test plant response rating 0 to 100; type: in vivo, Oryza sativa
Procedure, shortened: as §1

crabgrass = assay: Test B preemergence/postemergence greenhouse plant response rating 0 to 10; type: in vivo, Digitaria spp.; conditions: 0 to 10 scale
Procedure, shortened: as §2

downy brome = assay: Test C preemergence/postemergence greenhouse plant response rating 0 to 100; type: in vivo, Bromus tectorum; conditions: for Plant response rating Downy Brome: 62 g/ha, 0 to 100 scale
Procedure, shortened: as §1

lambsquarters = assay: Test B preemergence/postemergence greenhouse plant response rating 0 to 10; type: in vivo, Chenopodium album; conditions: 0 to 10 scale
Procedure, shortened: as §2

wild oat [6] = assay: as above; type: in vivo, Avena fatua; conditions: 0 to 10 scale
Procedure, shortened: as §2

[7] = POSTEMERGENCE section, flood test, Rate 1 g/ha
[8] = Rate 16 g/ha, under POSTEMERGENCE head (flood test species)
[9] = flood test species listed under POSTEMERGENCE, 62 g/ha, 0 to 100 scale
[10] = POSTEMERGENCE, 62 g/ha, 0 to 100 scale
[11] = POSTEMERGENCE section, flood test, Rate 4 g/ha

CC(C)Oc1cc(-c2nn3c(c2Br)CCCC3)c(F)cc1Cl [Compound 38]
Plant response rating, Chickweed (chickweed; 62 g/ha, 0 to 100 scale): 30
Plant response rating (0 to 100), Chickweed (chickweed; Rate 1 g/ha): 0
Plant response rating (0 to 100), Chickweed (chickweed; Rate 4 g/ha): 10
Plant response rating (0 to 100), Chickweed (chickweed; Rate 16 g/ha): 20
Plant response rating, Cotton (cotton; POSTEMERGENCE): 100
Plant response rating (0 to 100), Cotton (cotton; POSTEMERGENCE, Rate 1 g/ha): 60
Plant response rating (0 to 100), Cotton (cotton; POSTEMERGENCE, Rate 4 g/ha): 80
Plant response rating, Cotton (cotton; PREEMERGENCE): 0
Plant response rating (0 to 100), Cotton (cotton; PREEMERGENCE, Rate 1 g/ha): 0
Plant response rating (0 to 100), Cotton (cotton; PREEMERGENCE, Rate 4 g/ha): 0
Plant response rating (0 to 100), Cotton (cotton; Rate 16 g/ha, POSTEMERGENCE): 90
Plant response rating (0 to 100), Cotton (cotton; Rate 16 g/ha, PREEMERGENCE): 0
Plant response rating (0 to 100), Barnyardgrass 2 (barnyardgrass [1]; [7]): 10
Plant response rating (0 to 100), Barnyardgrass 2 (barnyardgrass [1]; Rate 4 g/ha, under POSTEMERGENCE head (flood test species)): 20
Plant response rating (0 to 100), Barnyardgrass 2 (barnyardgrass [1]; [8]): 75
Plant response rating Barnyardgrass 2 (barnyardgrass [1]; [9]): 100
Plant response rating, Wild buckwheat (wild buckwheat; POSTEMERGENCE, Rate 50 g/ha): 10
Plant response rating, Wild buckwheat (wild buckwheat; PREEMERGENCE, Rate 50 g/ha): 8
Plant response rating, Wild buckwheat (wild buckwheat; Rate 200 g/ha, POSTEMERGENCE): 10
Plant response rating, Wild buckwheat (wild buckwheat; Rate 200 g/ha, PREEMERGENCE): 10
Plant response rating, Wild oat (wild oat [2]; [10]): 50
Plant response rating (0 to 100), Wild oat (wild oat [2]; POSTEMERGENCE, Rate 1 g/ha): 0
Plant response rating (0 to 100), Wild oat (wild oat [2]; POSTEMERGENCE, Rate 4 g/ha): 10
Plant response rating (0 to 100), Wild oat (wild oat [2]; PREEMERGENCE, Rate 1 g/ha): 0
Plant response rating (0 to 100), Wild oat (wild oat [2]; PREEMERGENCE, Rate 4 g/ha): 0
Plant response rating (0 to 100), Wild oat (wild oat [2]; Rate 16 g/ha, POSTEMERGENCE): 30
Plant response rating (0 to 100), Wild oat (wild oat [2]; Rate 16 g/ha, PREEMERGENCE): 0
Plant response rating, Nutsedge (purple nutsedge; POSTEMERGENCE, Rate 50 g/ha): 3
Plant response rating, Nutsedge (purple nutsedge; PREEMERGENCE, Rate 50 g/ha): 0
Plant response rating, Nutsedge (purple nutsedge; Rate 200 g/ha, POSTEMERGENCE): 4
Plant response rating, Nutsedge (purple nutsedge; Rate 200 g/ha, PREEMERGENCE): 0
Plant response rating, Rape (rape; POSTEMERGENCE): 80
Plant response rating (0 to 100), Rape (rape; POSTEMERGENCE, Rate 1 g/ha): 20
Plant response rating (0 to 100), Rape (rape; POSTEMERGENCE, Rate 4 g/ha): 30
Plant response rating, Rape (rape; PREEMERGENCE): 30
Plant response rating (0 to 100), Rape (rape; PREEMERGENCE, Rate 1 g/ha): 0
Plant response rating (0 to 100), Rape (rape; PREEMERGENCE, Rate 4 g/ha): 10
Plant response rating (0 to 100), Rape (rape; Rate 16 g/ha, POSTEMERGENCE): 40
Plant response rating (0 to 100), Rape (rape; Rate 16 g/ha, PREEMERGENCE): 20
Plant response rating (0 to 100), Umbrella sedge (umbrella sedge; [7]): 0
Plant response rating (0 to 100), Umbrella sedge (umbrella sedge; [11]): 0
Plant response rating (0 to 100), Umbrella sedge (umbrella sedge; [8]): 20
Plant response rating Umbrella sedge (umbrella sedge; [9]): 50
Plant response rating, Giant foxtail (giant foxtail [3]; POSTEMERGENCE, Rate 50 g/ha): 5
Plant response rating, Giant foxtail (giant foxtail [3]; PREEMERGENCE, Rate 50 g/ha): 2
Plant response rating, Giant foxtail (giant foxtail [3]; Rate 200 g/ha, POSTEMERGENCE): 7
Plant response rating, Giant foxtail (giant foxtail [3]; Rate 200 g/ha, PREEMERGENCE): 9
Plant response rating, Soybean (soybean; [10]): 60
Plant response rating (0 to 100), Soybean (soybean; POSTEMERGENCE, Rate 1 g/ha): 20
Plant response rating (0 to 100), Soybean (soybean; POSTEMERGENCE, Rate 4 g/ha): 20
Plant response rating (0 to 100), Soybean (soybean; PREEMERGENCE, Rate 1 g/ha): 0
Plant response rating (0 to 100), Soybean (soybean; PREEMERGENCE, Rate 4 g/ha): 0
Plant response rating (0 to 100), Soybean (soybean; Rate 16 g/ha, POSTEMERGENCE): 40
Plant response rating (0 to 100), Soybean (soybean; Rate 16 g/ha, PREEMERGENCE): 0
Plant response rating, Giant foxtail (giant foxtail [4]; POSTEMERGENCE): 50
Plant response rating (0 to 100), Giant foxtail (giant foxtail [4]; POSTEMERGENCE, Rate 1 g/ha): 20
Plant response rating (0 to 100), Giant foxtail (giant foxtail [4]; POSTEMERGENCE, Rate 4 g/ha): 30
Plant response rating, Giant foxtail (giant foxtail [4]; PREEMERGENCE): 0
Plant response rating (0 to 100), Giant foxtail (giant foxtail [4]; PREEMERGENCE, Rate 1 g/ha): 0
Plant response rating (0 to 100), Giant foxtail (giant foxtail [4]; PREEMERGENCE, Rate 4 g/ha): 0
Plant response rating (0 to 100), Giant foxtail (giant foxtail [4]; Rate 16 g/ha, POSTEMERGENCE): 40
Plant response rating (0 to 100), Giant foxtail (giant foxtail [4]; Rate 16 g/ha, PREEMERGENCE): 0
Plant response rating, Cocklebur (cocklebur; POSTEMERGENCE, Rate 50 g/ha): 8
Plant response rating, Cocklebur (cocklebur; POSTEMERGENCE, Rate 200 g/ha): 10
Plant response rating, Cocklebur (cocklebur; PREEMERGENCE, Rate 50 g/ha): 0
Plant response rating, Cocklebur (cocklebur; Rate 200 g/ha, PREEMERGENCE): 5
Plant response rating, Barnyardgrass (barnyardgrass [5]; POSTEMERGENCE, Rate 50 g/ha): 6
Plant response rating, Barnyardgrass (barnyardgrass [5]; POSTEMERGENCE, Rate 200 g/ha): 8
Plant response rating, Barnyardgrass (barnyardgrass [5]; PREEMERGENCE, Rate 50 g/ha): 0
Plant response rating, Barnyardgrass (barnyardgrass [5]; Rate 200 g/ha, PREEMERGENCE): 1
Plant response rating (0 to 100), Rice Japonica (rice; [7]): 0
Plant response rating (0 to 100), Rice Japonica (rice; [11]): 10
Plant response rating (0 to 100), Rice Japonica (rice; [8]): 10
Plant response rating Rice Japonica (rice; [9]): 30
Plant response rating, Crabgrass (crabgrass; POSTEMERGENCE, Rate 50 g/ha): 5
Plant response rating, Crabgrass (crabgrass; POSTEMERGENCE, Rate 200 g/ha): 6
Plant response rating, Crabgrass (crabgrass; PREEMERGENCE, Rate 50 g/ha): 0
Plant response rating, Crabgrass (crabgrass; Rate 200 g/ha, PREEMERGENCE): 8
Plant response rating Downy Brome (downy brome; POSTEMERGENCE): 40
Plant response rating (0 to 100), Downy Brome (downy brome; POSTEMERGENCE, Rate 1 g/ha): 10
Plant response rating (0 to 100), Downy Brome (downy brome; POSTEMERGENCE, Rate 4 g/ha): 20
Plant response rating Downy Brome (downy brome; PREEMERGENCE): 0
Plant response rating (0 to 100), Downy Brome (downy brome; PREEMERGENCE, Rate 1 g/ha): 0
Plant response rating (0 to 100), Downy Brome (downy brome; PREEMERGENCE, Rate 4 g/ha): 0
Plant response rating (0 to 100), Downy Brome (downy brome; Rate 16 g/ha, POSTEMERGENCE): 30
Plant response rating (0 to 100), Downy Brome (downy brome; Rate 16 g/ha, PREEMERGENCE): 0
Plant response rating, Lambsquarter (lambsquarters; POSTEMERGENCE, Rate 50 g/ha): 10
Plant response rating, Lambsquarter (lambsquarters; PREEMERGENCE, Rate 50 g/ha): 10
Plant response rating, Lambsquarter (lambsquarters; Rate 200 g/ha, POSTEMERGENCE): 10
Plant response rating, Lambsquarter (lambsquarters; Rate 200 g/ha, PREEMERGENCE): 10
Plant response rating, Wild oat (wild oat [6]; POSTEMERGENCE, Rate 50 g/ha): 3
Plant response rating, Wild oat (wild oat [6]; PREEMERGENCE, Rate 50 g/ha): 0
Plant response rating, Wild oat (wild oat [6]; Rate 200 g/ha, POSTEMERGENCE): 5
